# Earlier results in patent US6458376B1, “Nonaqueous fluorinated drug delivery suspensions” (Allergan, Inc., priority 1990, dated 2002).
# What was measured:
# [1] = systemically administered
# [2] = for Boiling point: ambient pressure
SMILES,elimination half life [1],elimination half-life (in words) [1],Density @ 25° C. [2] [gms/mL],Kin. viscosity @ 25° C. [2] [cst],Specific heat @ 25° C. [2] [g-cal/gm],Surface tension @ 25° C. [2] [dynes/cm],Boiling point [2] [°C]
"FC1(F)C(F)(F)C(F)(F)C2(F)C(F)(F)C(F)(F)C(F)(F)C(F)(F)C2(F)C1(F)F (centres unmarked) [PFD, Perfluoro(decahydronaphthalene)]",about 7 days,quite rapid,1.929,2.9,0.22,19.3,142
"FC1(F)C(F)(F)C(F)(F)C2(F)C(F)(C1(F)F)C(F)(F)C(F)(F)C1(F)C(F)(F)C(F)(F)C(F)(F)C(F)(F)C12F (centres unmarked) [PPP, perfluoroperhydrophenanthrene]",–,quite rapid,2.016,8.0,0.27,21.6,215
"O [Water, reference compound]",–,–,1.000,1.00,1.00,72.0,–
